Patent US9364467B2 (Salix Pharmaceuticals, Ltd, priority 2012, dated 2016)
In brackets after ≈: the same amount, converted by molar mass. Like-named read-outs stand apart in the source and are kept apart here.

Assays:
[1] = system: S. aureus; assay: In vitro activity (MIC) against S. aureus strains; conditions: Staphylococcus aureus
[2] = system: S. haemolyticus; assay: In vitro activity (MIC) against S. haemolyticus strains; conditions: Staphylococcus haemolyticus
[3] = system: Staphylococcus spp. strains; assay: In vitro activity (MIC) against Staphylococcus spp. strains
[4] = system: Enterobacteriaceae spp. strains; assay: In vitro activity (MIC) against Enterobacteriaceae spp. strains

Structure (SMILES): CO[C@H]1/C=C/O[C@@]2(C)Oc3c(C)c(O)c4c(O)c(c5c(nc6cc(C)ccn65)c4c3C2=O)NC(=O)/C(C)=C\C=C\[C@H](C)[C@H](O)[C@@H](C)[C@@H](O)[C@@H](C)[C@H](OC(C)=O)[C@@H]1C [Rifaximin, reference compound]
- MIC ([1]; strain ATCC S. aureus 29213): 0.015 mg/L (≈ 0.0191 µM)
- MIC ([1]; strain S. aureus 215): 1 mg/L (≈ 1.27 µM)
- MIC ([1]; strain S. aureus 234): 0.25 mg/L (≈ 0.318 µM)
- MIC ([1]; strain S. aureus 236): 1 mg/L (≈ 1.27 µM)
- MIC ([1]; strain S. aureus 237): 0.06 mg/L (≈ 0.0763 µM)
- MIC ([1]; strain S. aureus 238): 0.03 mg/L (≈ 0.0382 µM)
- MIC ([1]; strain S. aureus 246): 0.5 mg/L (≈ 0.636 µM)
- MIC ([1]; strain S. aureus 252): 0.5 mg/L (≈ 0.636 µM)
- MIC ([1]; strain S. aureus 253): 0.12 mg/L (≈ 0.153 µM)
- MIC ([1]; strain S. aureus 267): 1 mg/L (≈ 1.27 µM)
- MIC ([1]; strain S. aureus 272): 0.25 mg/L (≈ 0.318 µM)
- MIC ([1]; strain S. aureus 279): 0.03 mg/L (≈ 0.0382 µM)
- MIC ([1]; strain S. aureus 327): 1 mg/L (≈ 1.27 µM)
- MIC ([1]; strain S. aureus 328): 0.5 mg/L (≈ 0.636 µM)
- MIC ([1]; strain S. aureus 329): 1 mg/L (≈ 1.27 µM)
- MIC ([1]; strain S. aureus 339): 1 mg/L (≈ 1.27 µM)
- MIC ([1]; strain S. aureus 345): 0.25 mg/L (≈ 0.318 µM)
- MIC ([1]; strain S. aureus 355): 0.5 mg/L (≈ 0.636 µM)
- MIC ([1]; strain S. aureus 406): 0.5 mg/L (≈ 0.636 µM)
- MIC ([1]; strain S. aureus 408): 0.25 mg/L (≈ 0.318 µM)
- MIC ([1]; strain S. aureus 409): 0.12 mg/L (≈ 0.153 µM)
- MIC ([1]; strain S. aureus 416): 0.5 mg/L (≈ 0.636 µM)
- MIC ([1]; strain S. aureus 425): 0.5 mg/L (≈ 0.636 µM)
- MIC ([1]; strain S. aureus 436): 0.06 mg/L (≈ 0.0763 µM)
- MIC ([1]; strain S. aureus 475): 0.5 mg/L (≈ 0.636 µM)
- MIC ([2]; strain S. haemolyticus 243): 0.06 mg/L (≈ 0.0763 µM)
- MIC ([2]; strain S. haemolyticus 276): 0.12 mg/L (≈ 0.153 µM)
- MIC ([2]; strain S. haemolyticus 955): 0.12 mg/L (≈ 0.153 µM)
- MIC ([2]; strain S. haemolyticus 982): 0.06 mg/L (≈ 0.0763 µM)
- MIC50 ([3]; Staphylococcus): 0.25 mg/L (≈ 0.318 µM)
- MIC90 ([3]; Staphylococcus): 1 mg/L (≈ 1.27 µM)
- Range (MIC) ([3]; Staphylococcus spp. strains): 0.03 to 1 mg/L
- MIC ([3]; Staphylococcus, read-out: Mode (MIC), Staphylococcus spp. strains): 0.5 mg/L (≈ 0.636 µM)
- MIC ([3]; Staphylococcus, strain S. spp. 1102): 0.06 mg/L (≈ 0.0763 µM)
- MIC ([3]; Staphylococcus, strain S. spp. 1187): 0.03 mg/L (≈ 0.0382 µM)
- MIC ([3]; Staphylococcus, strain S. spp. 1195): 0.06 mg/L (≈ 0.0763 µM)
- MIC ([3]; Staphylococcus, strain S. spp. 1256): 0.12 mg/L (≈ 0.153 µM)
- MIC ([3]; Staphylococcus, strain S. spp. 1312): 0.25 mg/L (≈ 0.318 µM)
- MIC ([3]; Staphylococcus, strain S. spp. 1689): 1 mg/L (≈ 1.27 µM)
- MIC ([3]; Staphylococcus, strain S. spp. 1745): 0.06 mg/L (≈ 0.0763 µM)
- MIC [4]: 32 mg/L (≈ 40.7 µM)
- MIC50 [4]: 32 mg/L (≈ 40.7 µM)
- MIC90 [4]: 32 mg/L (≈ 40.7 µM)
- MIC ([4]; Citrobacter freundii, C. freundii 57): 16 mg/L (≈ 20.4 µM)
- MIC ([4]; Citrobacter freundii, C. freundii 58): 32 mg/L (≈ 40.7 µM)
- MIC ([4]; Citrobacter freundii, C. freundii 65): 32 mg/L (≈ 40.7 µM)
- MIC ([4]; Citrobacter freundii, C. freundii 68): 32 mg/L (≈ 40.7 µM)
- MIC ([4]; Citrobacter freundii, C. freundii 69): 32 mg/L (≈ 40.7 µM)
- MIC ([4]; Citrobacter freundii, C. freundii 1070): 32 mg/L (≈ 40.7 µM)
- MIC ([4]; Citrobacter freundii, C. freundii 1073): 32 mg/L (≈ 40.7 µM)
- MIC ([4]; Citrobacter freundii, C. freundii 1075): 32 mg/L (≈ 40.7 µM)
- MIC ([4]; Enterobacter cloacae, E. cloacae 1): 32 mg/L (≈ 40.7 µM)
- MIC ([4]; Enterobacter cloacae, E. cloacae 3): 32 mg/L (≈ 40.7 µM)
- MIC ([4]; Enterobacter cloacae, E. cloacae 8): 32 mg/L (≈ 40.7 µM)
- MIC ([4]; Enterobacter cloacae, E. cloacae 12): 32 mg/L (≈ 40.7 µM)
- MIC ([4]; Enterobacter cloacae, E. cloacae 13): 32 mg/L (≈ 40.7 µM)
- MIC ([4]; Enterobacter cloacae, E. cloacae 14): 32 mg/L (≈ 40.7 µM)
- MIC ([4]; Enterobacter cloacae, E. cloacae 16): 32 mg/L (≈ 40.7 µM)
- MIC ([4]; Enterobacter cloacae, E. cloacae 20): 32 mg/L (≈ 40.7 µM)
- MIC ([4]; Enterobacter cloacae, E. cloacae 321): 32 mg/L (≈ 40.7 µM)
- MIC ([4]; Enterobacter cloacae, E. cloacae 348): 32 mg/L (≈ 40.7 µM)
- MIC ([4]; Enterobacter cloacae, E. cloacae 349): 32 mg/L (≈ 40.7 µM)
- MIC ([4]; Enterobacter cloacae, E. cloacae 358): 32 mg/L (≈ 40.7 µM)
- MIC ([4]; Enterobacter cloacae, E. cloacae 367): 32 mg/L (≈ 40.7 µM)
- MIC ([4]; Enterobacter cloacae, E. cloacae 369): 32 mg/L (≈ 40.7 µM)
- Range (MIC) ([4]; Enterobacteriaceae spp. strains): 8 to 32 mg/L
- MIC ([4]; Escherichia coli, ATCC E. Coli 25922): 16 mg/L (≈ 20.4 µM)
- MIC ([4]; Escherichia coli, E. coli 6): 32 mg/L (≈ 40.7 µM)
- MIC ([4]; Escherichia coli, E. coli 15): 16 mg/L (≈ 20.4 µM)
- MIC ([4]; Escherichia coli, E. coli 34): 32 mg/L (≈ 40.7 µM)
- MIC ([4]; Escherichia coli, E. coli 37): 8 mg/L (≈ 10.2 µM)
- MIC ([4]; Escherichia coli, E. coli 41): 16 mg/L (≈ 20.4 µM)
- MIC ([4]; Escherichia coli, E. coli 43): 16 mg/L (≈ 20.4 µM)
- MIC ([4]; Escherichia coli, E. coli 44): 16 mg/L (≈ 20.4 µM)
- MIC ([4]; Escherichia coli, E. coli 46): 16 mg/L (≈ 20.4 µM)
- MIC ([4]; Escherichia coli, E. coli 47): 32 mg/L (≈ 40.7 µM)
- MIC ([4]; Escherichia coli, E. coli 48): 32 mg/L (≈ 40.7 µM)
- MIC ([4]; Escherichia coli, E. coli 49): 32 mg/L (≈ 40.7 µM)
- MIC ([4]; Escherichia coli, E. coli 56): 32 mg/L (≈ 40.7 µM)
- MIC ([4]; Escherichia coli, E. coli 62): 32 mg/L (≈ 40.7 µM)
- MIC ([4]; Escherichia coli, E. coli 71): 8 mg/L (≈ 10.2 µM)
- MIC ([4]; Escherichia coli, E. coli 90): 16 mg/L (≈ 20.4 µM)
- MIC ([4]; Escherichia coli, E. coli 92): 32 mg/L (≈ 40.7 µM)
- MIC ([4]; Escherichia coli, E. coli 93): 32 mg/L (≈ 40.7 µM)
- MIC ([4]; Escherichia coli, E. coli 95): 32 mg/L (≈ 40.7 µM)
- MIC ([4]; Escherichia coli, E. coli 96): 8 mg/L (≈ 10.2 µM)
